In patent publication US20110238319A1, “METHOD OF DIAGNOSING A RESPIRATORY DISEASE” (priority 2008, published 2011):

How the values were obtained:
guinea pigs [1] = assay: Lung lavage total and differential cell counts; type: in vivo, guinea pig
Description: (§1) Animals were sacrificed with an overdose of urethane (3 gm/kg i.v.). Cytosmear for total and differential cell counts (Diff-Quik®, Baxter Healthcare Corp) were performed on lung lavage ^17. The lungs were removed, inflated and fixed in 3.7% formaldehyde for 24 hours. Airway sections were stained with 2% chromotrope 2R to determine the average number of eosinophils per 10 high power field (#/hpf) as previously described^20.
(§2) A P-value of 0.05 was considered significant.

guinea pigs [2] = assay: Eosinophil count in cartilaginous airways (histology); type: in vivo, guinea pig; details: challengeddex vs challenged
Description: as §1, §2

[3] = Urine metabolite concentrations by 1H-NMR (Chenomx, PLS-DA); type: in vivo, guinea pig; details: for urine Fumarate concentration / urine Glycolate concentration / urine Trimethylamine concentration: mean (STD) per title
Description: Regarding animal urine data: under anaesthesia, but before performing airway inflammatory measurements, urine samples (1.0-2.0 cc) were collected by trans-abdominal cystocentesis. Regarding human urine data: midstream urine samples were collected in standard 50 ml specimen containers and promptly placed in a freezer at the outpatient clinic (−20° C.).
Within 3 hours each the urine sample was moved to the −80° C. freezer at NANUC (National High Field NMR Centre), University of Alberta. To determine the NMR spectra, the samples were thawed in a biosafety fume hood and a […] aliquot was removed and placed in a 1.5 ml Eppendorff tube followed by the addition of […] of a reference buffer solution (4.9 mM DSS (disodium-2, 2-dimethyl 2-silapentane-5-sulphonate) and 100 mM imidazole in D2O, Sigma-Aldrich). Each sample was brought to a pH of 7.0 +/-0.1 using HCl and NaOH. An uncentrifuged aliquot of 600 μl was taken and transferred to a standard 5 mm glass NMR tube (Wilmad, N.J.). ^1H-NMR spectra were acquired on a 600 MHz Inova spectrometer (Varian Inc, Palo Alto, Calif.) equipped with a 5 mm triple-resonance (HCN) probe with z-axis gradient coil. One-dimensional ^1H-NMR spectra were collected at 25° C. with a tnnoesy pulse sequence (one-dimensional, three pulse NOESY, with a transmitter pre-saturation delay of 900 ms for water suppression during the pre-acquisition delay and 100 ms mixing time) and a spectral width of 7200 Hz. The time-domain data points were 64k complex points, acquisition time was 4s, 90° pulse was 6.8 μs, repetition time was 5 s, with four steady state scans, and 32 acquired scans per FID (Free Induction Decay). The data were apodized with an exponential window function corresponding to a line broadening of 0.5 Hz, zero-filled to 128 k complex points, and Fourier transformed^22.
Quantification of 50-70 easily identifiable metabolites involved in various relevant metabolic pathways was performed using Chenomx NMR Suite Professional software package Version 3.1 (Chenomx Inc., Edmonton, AB)^23. The software contains a database of known metabolites with their referenced spectral resonant frequencies or signatures. The software allows matching of these known resonant frequencies with the observed resonant frequencies of the collected spectra, enabling the qualitative and quantitative analysis of metabolites in urine NMR spectra (FIG. 1A). The methyl groups from DSS produce a resonant singlet, which served as internal standard for spectral chemical shifts (set to 0 ppm) and for quantification. The internal DSS signal was also utilized as the concentration reference (0.49 mM). To correct for dilution, metabolite concentrations were referenced against urinary creatinine^24. This method is capable of providing metabolite concentration accuracies in excess of 90%^23, 25.
To separate groups of animals or patients based on urine metabolite concentrations, the values of the 50-70 metabolite concentrations for each animal/child were log transformed and imported to SIMCA software (SIMCA-P 11, Umetrics, USA). […] To appreciate the impact of a lower concentration metabolite in the model, equal to the change in an abundant metabolite, the methods must detect the relative change in concentration. Thus, metabolite concentrations were mean-centered followed by unit variance scaling (or z-scoring). Thereafter, partial least squares discriminant analysis (PLS-DA) was performed (SIMCA-P 11). PLS-DA determines the relationship between the response vector Y (i.e. subject group) and the matrix X (concentration of each metabolite) by simultaneous projections of both Y and X spaces to a plane. Then seven fold internal crossvalidation was performed by dividing the data into seven parts (by default) and each 1/7th in turn was removed.

guinea pigs [4] = tested on: guinea pigs
Description: Female Dunkin-Hartley guinea pigs (GP) were used (specific pathogen-free, 180-450 g, Charles River Laboratories, Saint-Constant, Canada) in accordance with standards established by the University of Alberta Health Sciences Animal Policy and Welfare Committee and Guidelines of the Canadian Council on Animal Care. All guinea pigs were allowed to adapt to the new environment for at least one week before physiologic studies. […] Airway function and inflammation were assessed four days after OVA challenge or 21 days after sensitization alone.
Guinea Pigs were anesthetized with urethane (1.5 g/kg i.p.), tracheostomized, and ventilated after paralysis with succinylcholine chloride (Sigma-Aldrich) (10 μg/kg/min, i.v.). Pulmonary inflation pressure (Ppi) was measured using (Powerlab, Adlnstruments, Colorado Springs, USA) as previously described^17. […] The resulting bronchoconstriction was recorded as increases in Ppi.
The results are expressed as mean and standard error of the mean (SEM) and standard deviation (SD) respectively. A P-value of 0.05 was considered significant.

C[C@@H]1C[C@H]2[C@@H]3CCC4=CC(=O)C=C[C@]4(C)[C@@]3(F)[C@@H](O)C[C@]2(C)[C@@]1(O)C(=O)CO [Dex, dexamethasone]
total cells in lung lavage (guinea pigs [1]; challengeddex vs challenged): remained higher similar to challenge
lymphocytes in lung lavage (guinea pigs [1]; challengeddex vs challenged, p<0.05): significantly lower
total cell counts in lung lavage (guinea pigs [1]; controldex vs control and sensitized, dexamethasone 6.5 μg/kg i.p. daily for three days): no significant difference
macrophage values in lung lavage (guinea pigs [1]; controldex vs control, p=0.03): higher compared with control
eosinophils in cartilaginous airways (guinea pigs [2]): remained similar to challenged
urine 1-Methyl-Histamine concentration ([3]; Challenged/Dex group (n = 12)): 0.044(0.002-0.055) mmol/mmol creatinine
urine 2-OH-Isobutyrate concentration ([3]; Challenged/Dex group (n = 12)): 0.043(0.031-0.061) mmol/mmol creatinine
urine 2-Oxoglutarate concentration ([3]; Challenged/Dex group (n = 12)): 0.006(0.005-0.012) mmol/mmol creatinine
urine 3-Methyl-Adipate concentration ([3]; Challenged/Dex group (n = 12)): 0.011(0.009-0.017) mmol/mmol creatinine
urine 3-OH-3-Methyl-Glutarate concentration ([3]; Challenged/Dex group (n = 12)): 0.010(0.006-0.014) mmol/mmol creatinine
urine 3-OH-Butyrate concentration ([3]; Challenged/Dex group (n = 12)): 0.018(0.013-0.029) mmol/mmol creatinine
urine 4-Aminohippurate concentration ([3]; Challenged/Dex group (n = 12)): 0.010(0.005-0.010) mmol/mmol creatinine
urine 4-OH-Phenylacetate concentration ([3]; Challenged/Dex group (n = 12)): 0.122(0.068-0.196) mmol/mmol creatinine
urine 4-Pyridoxate concentration ([3]; Challenged/Dex group (n = 12)): 0.009(0.005-0.010) mmol/mmol creatinine
urine Acetate concentration ([3]; Challenged/Dex group (n = 12)): 0.118(0.081-0.203) mmol/mmol creatinine
urine Acetoacetate concentration ([3]; Challenged/Dex group (n = 12)): 0.007(0.005-0.010) mmol/mmol creatinine
urine Acetone concentration ([3]; Challenged/Dex group (n = 12)): 0.005(0.003-0.009) mmol/mmol creatinine
urine Adenosine concentration ([3]; Challenged/Dex group (n = 12)): 0(0-0.001) mmol/mmol creatinine
urine Carnitine concentration ([3]; Challenged/Dex group (n = 12)): 0.010(0.010-0.015) mmol/mmol creatinine
urine Creatine concentration ([3]; Challenged/Dex group (n = 12)): 0.026(0.016-0.033) mmol/mmol creatinine
urine Dimethylamine concentration ([3]; Challenged/Dex group (n = 12)): 0.122(0.103-0.146) mmol/mmol creatinine
urine Glucose concentration ([3]; Challenged/Dex group (n = 12)): 0.155(0.100-0.334) mmol/mmol creatinine
urine Isobutyrate concentration ([3]; Challenged/Dex group (n = 12)): 0(0-0) mmol/mmol creatinine
urine Kynurenate concentration ([3]; Challenged/Dex group (n = 12)): 0.006(0.004-0.008) mmol/mmol creatinine
urine Malonate concentration ([3]; Challenged/Dex group (n = 12)): 0.014(0.010-0.018) mmol/mmol creatinine
urine Methylamine concentration ([3]; Challenged/Dex group (n = 12)): 0.033(0.026-0.069) mmol/mmol creatinine
urine Myolnositol concentration ([3]; Challenged/Dex group (n = 12)): 0.035(0.020-0.080) mmol/mmol creatinine
urine Oxalacetate concentration ([3]; Challenged/Dex group (n = 12)): 0.249(0.197-0.323) mmol/mmol creatinine
urine Phenylacetylglycine concentration ([3]; Challenged/Dex group (n = 12)): 0.140(0.095-0.213) mmol/mmol creatinine
urine Phenylalanine concentration ([3]; Challenged/Dex group (n = 12)): 0.022(0.016-0.042) mmol/mmol creatinine
urine Sarcosine concentration ([3]; Challenged/Dex group (n = 12)): 0.010(0.007-0.016) mmol/mmol creatinine
urine Succinate concentration ([3]; Challenged/Dex group (n = 12)): 0.006(0.005-0.008) mmol/mmol creatinine
urine Trigonelline concentration ([3]; Challenged/Dex group (n = 12)): 0.069(0.063-0.091) mmol/mmol creatinine
urine Trimethyl-N-Oxide concentration ([3]; Challenged/Dex group (n = 12)): 0.045(0.027-0.062) mmol/mmol creatinine
urine Tyrosine concentration ([3]; Challenged/Dex group (n = 12)): 0.024(0.016-0.032) mmol/mmol creatinine
urine Fumarate concentration ([3]; Challenged/Dex group (n = 12)): 0(0-0) mmol/mmol creatinine
urine Glycolate concentration ([3]; Challenged/Dex group (n = 12)): 0(0-0) mmol/mmol creatinine
urine Trimethylamine concentration ([3]; Challenged/Dex group (n = 12)): 0(0-0) mmol/mmol creatinine
urine 1-Methyl-Histamine concentration ([3]; Control/Dex group (n = 4)): 0.015(0.008-0.023) mmol/mmol creatinine
urine 2-OH-Isobutyrate concentration ([3]; Control/Dex group (n = 4)): 0.043(0.038-0.045) mmol/mmol creatinine
urine 2-Oxoglutarate concentration ([3]; Control/Dex group (n = 4)): 0.004(0.003-0.005) mmol/mmol creatinine
urine 3-Methyl-Adipate concentration ([3]; Control/Dex group (n = 4)): 0.015(0.008-0.018) mmol/mmol creatinine
urine 3-OH-3-Methyl-Glutarate concentration ([3]; Control/Dex group (n = 4)): 0.004(0.003-0.005) mmol/mmol creatinine
urine 3-OH-Butyrate concentration ([3]; Control/Dex group (n = 4)): 0.041(0.029-0.048) mmol/mmol creatinine
urine 4-Aminohippurate concentration ([3]; Control/Dex group (n = 4)): 0.090(0.040-0.115) mmol/mmol creatinine
urine 4-OH-Phenylacetate concentration ([3]; Control/Dex group (n = 4)): 0.101(0.095-0.130) mmol/mmol creatinine
urine 4-Pyridoxate concentration ([3]; Control/Dex group (n = 4)): 0.004(0.003-0.005) mmol/mmol creatinine
urine Acetate concentration ([3]; Control/Dex group (n = 4)): 0.137(0.098-0.180) mmol/mmol creatinine
urine Acetoacetate concentration ([3]; Control/Dex group (n = 4)): 0.011(0.009-0.012) mmol/mmol creatinine
urine Acetone concentration ([3]; Control/Dex group (n = 4)): 0.004(0.003-0.005) mmol/mmol creatinine
urine Adenosine concentration ([3]; Control/Dex group (n = 4)): 0.002(0-0.003) mmol/mmol creatinine
urine Carnitine concentration ([3]; Control/Dex group (n = 4)): 0.140(0.120-0.175) mmol/mmol creatinine
urine Creatine concentration ([3]; Control/Dex group (n = 4)): 0.039(0.035-0.045) mmol/mmol creatinine
urine Dimethylamine concentration ([3]; Control/Dex group (n = 4)): 0.096(0.087-0.110) mmol/mmol creatinine
urine Isobutyrate concentration ([3]; Control/Dex group (n = 4)): 0(0-0.50) mmol/mmol creatinine
urine Kynurenate concentration ([3]; Control/Dex group (n = 4)): 0.005(0.004-0.010) mmol/mmol creatinine
urine Malonate concentration ([3]; Control/Dex group (n = 4)): 0.016(0.011-0.020) mmol/mmol creatinine
urine Methylamine concentration ([3]; Control/Dex group (n = 4)): 0.009(0.009-0.014) mmol/mmol creatinine
urine Myolnositol concentration ([3]; Control/Dex group (n = 4)): 0.410(0.380-0.570) mmol/mmol creatinine
urine Oxalacetate concentration ([3]; Control/Dex group (n = 4)): 0.237(0.228-0.247) mmol/mmol creatinine
urine Phenylacetylglycine concentration ([3]; Control/Dex group (n = 4)): 0.024(0.022-0.026) mmol/mmol creatinine
urine Phenylalanine concentration ([3]; Control/Dex group (n = 4)): 0.011(0.009-0.013) mmol/mmol creatinine
urine Sarcosine concentration ([3]; Control/Dex group (n = 4)): 0.004(0.003-0.005) mmol/mmol creatinine
urine Succinate concentration ([3]; Control/Dex group (n = 4)): 0.013(0.011-0.014) mmol/mmol creatinine
urine Succinylacetone concentration ([3]; Control/Dex group (n = 4)): 0.004(0.003-0.005) mmol/mmol creatinine
urine Trigonelline concentration ([3]; Control/Dex group (n = 4)): 0.053(0.044-0.059) mmol/mmol creatinine
urine Trimethyl-N-Oxide concentration ([3]; Control/Dex group (n = 4)): 0.089(0.076-0.107) mmol/mmol creatinine
urine Tyrosine concentration ([3]; Control/Dex group (n = 4)): 0.027(0.016-0.042) mmol/mmol creatinine
urine Fumarate concentration ([3]; Control/Dex group (n = 4)): 0(0-0) mmol/mmol creatinine
urine Glycolate concentration ([3]; Control/Dex group (n = 4)): 0(0-0) mmol/mmol creatinine
urine Trimethylamine concentration ([3]; Control/Dex group (n = 4)): 0(0-0) mmol/mmol creatinine
urine phenylacetylglycine level ([3]; challenged animals after dexamethasone treatment): returned to control levels
urine sarcosine level ([3]; challenged guinea pig after steroid treatment): decreased
urine metabolite profile by PLS-DA ([3]; challenged vs challengeddex, control vs controldex): altered urine metabolite profile
urine myo-inositol level ([3]; challengeddex among guinea pig groups): highest
urinary excretion of 2-hydroxyisobutyrate ([3]; challengeddex vs challenged): levels rose
urinary excretion of glucose ([3]; challengeddex vs challenged): levels rose
urine phenylacetylglycine level ([3]; dexamethasone-treated controls vs control): significantly lower levels
bronchoconstriction response to histamine (Ppi) (guinea pigs [4]; challengeddex compared to challenged alone, dexamethasone 6.5 μg/kg i.p. 1 hour after challenge then daily for two days, p<0.05): diminished response

NCCc1c[nH]cn1 [histamine]
bronchoconstriction measured by increasing Ppi (guinea pigs [4]; histamine 1-20 μg/kg i.v.): dose-dependent bronchoconstriction
